Activity calls are given as the source filed them. The rule behind the calls is not given here.
Assays:
[1] = AUC (0 to infinity) in Sprague-Dawley rat at 10 mg/kg, po; assay type: ADME, organism-based; parameters: route oral, time infinity, dose 10 mg/kg; details: in vivo
[2] = Cmax in Sprague-Dawley rat at 5 mg/kg, po; assay type: ADME, organism-based; parameters: route oral, dose 5 mg/kg; details: in vivo
[3] = target: 3',5'-cyclic-AMP phosphodiesterase 4D (Homo sapiens, UniProt Q08499); assay: Inhibition of PDE4D2 (86-413) (unknown origin) expressed in Escherichia coli BL21 assessed as using [3H]-cAMP as substrate measured for 15 mins by liquid scintillation counting analysis
[4] = tested on: Rattus norvegicus; assay: Anti-inflammatory activity in bleomycin-induced idiopathic pulmonary fibrotic activity Sprague-Dawley rat model assessed as decrease in NO production in lungs at 10 mg/kg, po treated for 28 consecutive days; assay type: functional, organism-based
[5] = tested on: Rattus norvegicus; assay: Anti-idiopathic pulmonary fibrotic activity in bleomycin-induced Sprague-Dawley rat model assessed as reversal of peak expiratory flow at 10 mg/kg, po treated for 28 consecutive days relative to control; assay type: functional, organism-based
[6] = Toxicity in dog assessed as emesis at 10 mg/kg, po; assay type: organism-based, Canis lupus familiaris; details: in vivo
[7] = target: cGMP-inhibited 3',5'-cyclic phosphodiesterase 3A (Homo sapiens, UniProt Q14432); assay: Inhibition of PDE3A (679-1087) (unknown origin) expressed in Escherichia coli BL21 assessed as using [3H]-cAMP as substrate measured for 15 mins by liquid scintillation counting analysis
[8] = target: T1, Cytochrome P450 2B6 (Homo sapiens, UniProt P20813); assay: Inhibition of human hepatic CYP2B6; assay type: ADME, tissue-based, Liver
T1 sequence (P20813 whole entry): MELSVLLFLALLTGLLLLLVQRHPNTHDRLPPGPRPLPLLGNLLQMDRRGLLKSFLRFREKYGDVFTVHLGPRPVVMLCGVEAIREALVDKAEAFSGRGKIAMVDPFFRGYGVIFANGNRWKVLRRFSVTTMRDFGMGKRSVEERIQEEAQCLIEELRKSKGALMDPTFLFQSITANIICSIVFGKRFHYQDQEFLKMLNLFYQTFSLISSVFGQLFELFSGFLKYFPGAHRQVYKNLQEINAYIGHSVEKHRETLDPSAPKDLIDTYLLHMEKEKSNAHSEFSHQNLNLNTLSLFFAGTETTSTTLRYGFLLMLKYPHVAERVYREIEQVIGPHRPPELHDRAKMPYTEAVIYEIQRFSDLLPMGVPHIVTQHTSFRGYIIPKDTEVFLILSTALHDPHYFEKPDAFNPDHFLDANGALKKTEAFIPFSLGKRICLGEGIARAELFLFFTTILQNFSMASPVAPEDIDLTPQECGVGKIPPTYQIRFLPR

[9] = tested on: A549; assay: Anti-idiopathic pulmonary fibrotic activity in human A549 cells assessed as reduction in TGF-beta-induced fibronectin expression measured after 48 hrs by Western blot analysis; assay type: functional, cell-based; details: dose 10-20 µM
[10] = Metabolic stability in rat liver microsomes assessed as half life; assay type: ADME, Microsome
[11] = tested on: Rattus norvegicus; assay: Anti-idiopathic pulmonary fibrotic activity in bleomycin-induced Sprague-Dawley rat model assessed as prevention of structural damage of lungs at 10 mg/kg, po treated for 28 consecutive days by Hematoxylin and eosin staining based assay relative to control; assay type: functional, organism-based
[12] = AUC (0 to t) in Sprague-Dawley rat at 10 mg/kg, po; assay type: ADME, organism-based; parameters: dose 10 mg/kg; details: in vivo

Chain of 3',5'-cyclic-AMP phosphodiesterase 4D (Q08499 whole entry): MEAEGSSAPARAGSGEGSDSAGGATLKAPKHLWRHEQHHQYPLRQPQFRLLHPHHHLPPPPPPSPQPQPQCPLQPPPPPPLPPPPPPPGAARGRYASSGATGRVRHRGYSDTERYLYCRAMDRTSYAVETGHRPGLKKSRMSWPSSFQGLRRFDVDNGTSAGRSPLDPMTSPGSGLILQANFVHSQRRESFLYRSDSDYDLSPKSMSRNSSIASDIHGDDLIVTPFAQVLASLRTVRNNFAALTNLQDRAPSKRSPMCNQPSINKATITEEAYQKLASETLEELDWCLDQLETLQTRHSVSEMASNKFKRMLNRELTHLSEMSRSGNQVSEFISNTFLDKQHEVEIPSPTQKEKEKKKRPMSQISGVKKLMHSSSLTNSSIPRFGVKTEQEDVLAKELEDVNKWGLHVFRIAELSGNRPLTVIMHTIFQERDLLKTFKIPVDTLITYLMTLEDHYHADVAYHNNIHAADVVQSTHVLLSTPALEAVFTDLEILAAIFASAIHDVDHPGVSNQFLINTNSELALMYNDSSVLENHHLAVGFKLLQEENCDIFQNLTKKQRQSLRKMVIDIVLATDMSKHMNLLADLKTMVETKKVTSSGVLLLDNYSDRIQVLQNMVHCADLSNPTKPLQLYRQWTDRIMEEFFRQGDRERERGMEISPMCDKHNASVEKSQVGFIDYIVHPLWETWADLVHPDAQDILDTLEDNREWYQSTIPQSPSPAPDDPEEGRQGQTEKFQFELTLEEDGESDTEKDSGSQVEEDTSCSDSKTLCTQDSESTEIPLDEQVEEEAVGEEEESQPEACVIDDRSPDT
Chain of cGMP-inhibited 3',5'-cyclic phosphodiesterase 3A (Q14432 whole entry): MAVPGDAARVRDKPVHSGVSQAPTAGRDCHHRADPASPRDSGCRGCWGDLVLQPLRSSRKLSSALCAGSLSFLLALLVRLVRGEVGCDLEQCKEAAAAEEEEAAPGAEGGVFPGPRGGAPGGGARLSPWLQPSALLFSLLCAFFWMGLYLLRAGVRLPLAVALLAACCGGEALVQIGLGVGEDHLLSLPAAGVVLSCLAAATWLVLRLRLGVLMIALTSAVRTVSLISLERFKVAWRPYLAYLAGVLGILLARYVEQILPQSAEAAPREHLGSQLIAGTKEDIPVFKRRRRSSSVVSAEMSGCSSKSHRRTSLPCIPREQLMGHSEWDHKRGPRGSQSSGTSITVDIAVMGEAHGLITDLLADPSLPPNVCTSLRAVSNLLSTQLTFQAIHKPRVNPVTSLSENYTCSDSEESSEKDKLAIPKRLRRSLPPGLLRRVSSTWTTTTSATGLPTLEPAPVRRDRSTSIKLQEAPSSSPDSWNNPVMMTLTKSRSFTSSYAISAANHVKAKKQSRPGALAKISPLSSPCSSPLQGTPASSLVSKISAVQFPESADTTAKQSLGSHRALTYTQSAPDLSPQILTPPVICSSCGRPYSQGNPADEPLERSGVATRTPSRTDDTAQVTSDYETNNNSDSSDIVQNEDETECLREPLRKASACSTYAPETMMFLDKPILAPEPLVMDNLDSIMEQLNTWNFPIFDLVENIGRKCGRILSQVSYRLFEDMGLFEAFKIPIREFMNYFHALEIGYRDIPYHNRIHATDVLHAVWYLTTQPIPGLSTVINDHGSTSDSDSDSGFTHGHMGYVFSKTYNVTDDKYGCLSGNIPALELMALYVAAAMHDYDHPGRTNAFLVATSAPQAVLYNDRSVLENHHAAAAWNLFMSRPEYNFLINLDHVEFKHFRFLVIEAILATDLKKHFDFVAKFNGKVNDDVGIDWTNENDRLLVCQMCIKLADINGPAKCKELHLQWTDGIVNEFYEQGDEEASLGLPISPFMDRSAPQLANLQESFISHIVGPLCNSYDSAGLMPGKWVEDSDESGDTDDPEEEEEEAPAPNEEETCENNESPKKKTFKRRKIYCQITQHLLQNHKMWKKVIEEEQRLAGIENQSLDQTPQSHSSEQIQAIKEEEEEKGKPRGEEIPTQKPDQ

SMILES: COc1c(OCc2ccc(F)cc2)cc2oc3cc4c(c(OC/C=C/C(=O)O)c3c(=O)c2c1CC=C(C)C)C=CC(C)(C)O4
- AUC(0-inf) [1]: 2110 ng·h/mL
- Cmax [2]: 3850 ng/mL
- IC50 [3]: 0.015 µM
- Activity [4]: Active
- Activity [5]: Active
- Activity [6]: Non-Toxic
- IC50 [7]: > 10 µM
- IC50 [8]: > 25 µM
- Activity [9]: Dose-Dependent Effect
- half-life [10]: 12.2 h
- Activity [11]: Active
- AUC(0-t) [12]: 2090 ng·h/mL

— ChEMBL document CHEMBL4831531, “Mangostanin Derivatives as Novel and Orally Active Phosphodiesterase 4 Inhibitors for the Treatment of Idiopathic Pulmonary Fibrosis with Improved Safety” (J Med Chem, 2021)
